Here are results for 8 molecules from patent US10240124B2, “Cell culture substrate comprising a laminin and a cadherin” (BioLamina AB, priority 2011, dated 2019).

Assay [1] relates to hES cells. The experiment in a line: Clonal survival of individualized hES cells, alkaline phosphatase staining (Example 4). It is filed as cell-based, human. The method, then:
hES cells were plated in mTeSR1 medium on different coatings at a density of 250 cells per cm^2 and monitored after 5 days in culture using an alkaline phosphatase staining kit.
Next, combinations of laminin-521 and E-Cadherin were tested to determine whether the combinations could sustain clonal survival of the cells. Fixed amounts of laminin-521 were used for the cell culture dish coating in combination with titrated E-Cadherin.
Additional tests were performed to test the effects of various modifications to the mTeSR1 medium. A mixture of E-Cadherin to laminin-521 in a ratio of about 1:10 w/w was used to coat the plates. […] Time-lapse photography of the cells confirmed that laminin-521/E-Cadherin coatings facilitated cell survival through proliferation of the single cells, not through the aggregation of different cells.

Assay [2] relates to hES cells. The experiment in a line: Cell survival assay, 24 hours (Example 2). Format: cell-based, human. The note with it: for survival of hES cells 24 hours after plating from single cell suspension: O3 medium, absence of ROCK inhibitor; for survival of dissociated hES cells after 24 hours: quantified survival assay. The protocol:
(§1) Briefly, 96-well plates were coated by extracellular matrix proteins as described above and blocked by O3 medium containing bovine serum albumin. The ES cells were plated at cell density of 50,000 cells/cm^2 onto extracellular matrix-coated plates and left to adhere for 1 hour in a cell incubator. After that the plates were washed 3 times with the medium to remove the non-adherent cells, and then the adherent cells were fixed for 20 minutes by 5% glutaraldehyde, stained by 0.1% Crystal Violet. (Kebo Lab, Spanga, Sweden, http://www.kebolab.se). After one hour and 3 washes with water, Crystal Violet was extracted with 10% acetic acid and quantified by measuring optical density at 570 nm. All the experiments were performed in quadruplicate.
The survival assay was performed as described for the cell adhesion assay above, except that the cells were left in the cell incubator for 24 hours. For inhibition of survival assay, the cells were kept in a medium with function blocking antibodies at the concentrations recommended by the manufacturer or pathway inhibitors at concentrations indicated in the text for 30 minutes, and then plated on the coated dishes. All the experiments were performed in quadruplicate.
Pluripotent hES cells express α1, α5, β1, β2 and γ1 laminin chains. To compare the adhesion and clonal survival of hES cells plated from single cell suspension to different coating substrata, hES cells growing as monolayers on LN-511 or as clusters on a feeder layer were trypsinized into single cell suspension in O3 medium and plated on cell culture dishes coated with Matrigel, LN-111, LN-511, LN-521 or a mixture of LN-511 and LN-521, in the absence or presence of a ROCK inhibitor (Y-27632) and analyzed after 24 hours.

Assay [3] has as its system Human ES cells. Particulars: over 3 months; engraftment into SCID mice; cited from earlier work.
The subject of assay [4] is human embryonic stem cells. The experiment in a line: Survival of hES cells plated in single cell suspension on precoated dishes (description). Format: cell-based. The note with it: O3 medium, 30 Kcells/cm^2. An excerpt: In other aspects, the present disclosure provides a new material, isolated laminin-521, which permits human embryonic stem cell survival after dissociation into single cell suspension. The stem cells were dissociated into single cell suspension by Trypsin-EDTA treatment, pelleted by centrifugation, resuspended into O3 medium, filtered through a 40 μm sieve, and plated at a density of 30 Kcells/cm^2 on cell culture dishes precoated by either isolated laminin-521, laminin-511, or Matrigel. After one day in culture, the cells plated on Matrigel died, as is known in the art.

In assay [5] the target is Integrin α6β1 (Homo sapiens, UniProt P05556+P23229). The note with it: cited from earlier work.
Assay [6] has as its system myosin light chain (MLC). Briefly: Western blot of phosphorylated myosin light chain. It is filed as cell-based, human. The note with it: one and six hours after plating, FIG. 12 and 13. The protocol:
HS 181 cells were trypsinized into single cell suspension as described above. For inhibition experiments, the cells were kept in O3 medium with blocking antibodies or pathway inhibitors for 30 minutes and then 450K cells were plated on 35 mm dishes precoated with the appropriate matrix coating. For other experiments, same number of cells was plated directly after trypsinization. […] After two washings in ice-cold PBS, the plates with cells were snap frozen in liquid nitrogen and stored at −80° C. To prepare samples for western blots and ELISA, the plates were slowly thawed and kept on ice with 100-150 μl of lysis buffer (50 mM Tris-HCl, pH7.5, 150 mM NaCl, 0.5% deoxycholate, 0.5% SDS, 1% Triton X-100, 1% Igepal, Complete™ (Roche) and Phospho-Stop™ (Roche)) on top. Then, the cells were scraped, pipetted and sheared through a 27 G ¾″ needle. After that, the cell pellets were clarified by centrifugation at 16,100 rcf for 15 minutes at 4° C. For western blots, 4-12% gradient gels were used for SDS electrophoresis and the proteins were transferred to PVDF membranes. The membrane was hybridized with the antibody of interest according to the manufacturer's instructions. […] For the densitometry analysis the films were scanned at 2,400 dpi and analyzed by the Chemilmager5500 program (1 D-Multi Line densitometry mode). […]
On the technique in general: A western blot detects proteins with antibodies after separation by electrophoresis.

Assay [7] deals with hES cells. Briefly: Cell adhesion assay, 1 hour (Example 2). It is filed as cell-based, human. Particulars: compared with Matrigel or LN-111, not shown. The method, then:
Tissue cell culture plates were coated overnight at 4° C. with sterile solutions of the ECM proteins, such as human recombinant LN-521, all at a concentration of 30 μg/ml (5 μg/cm^2). Control plates were coated with Matrigel according to the STEMCELL Technologies' instructions. Prior to use, dishes were pre-warmed in an incubator for one hour after which prewarmed O3 medium was added without additional washing of the dish. After applying a fresh LN-521 solution to a new dish, the remaining LN-521 solution could be used at least once more. All the adhesion, survival, and inhibition of survival experiments were carried out using fresh coating materials.
as §1

Assay [8] relates to human ES cells (HS181). The experiment in a line: Cell adhesion assay, Crystal Violet (Example 1). It is filed as cell-based. The note with it: for cells remaining attached / surviving 24 hours after plating: HS181 completely dissociated, FIG. 4. The method, then: Ninety-six-well tissue cell culture plates were coated overnight at 4° C. with sterile solutions of the ECM proteins mouse LN-111 (Invitrogen), human recombinant LN-511, and human recombinant LN-521, all at a concentration of 30 μg/ml (5 μg/cm^2). For control cells, BD Matrigel™ hESC qualified (BD Biosciences) was used according to the manufacturer's instructions.
The assay was performed as described (Extracellular Matrix Protocols, 2000). Briefly, 96-well plates were coated by extracellular matrix proteins as described above and blocked by O3 medium containing bovine serum albumin. The ES cells were plated at a cell density of 600 cell/mm^2 upon extracellular matrix-coated plates and were left to adhere for either 1 hour or 1 day at the cell incubator. Non-adherent cells were washed away, and adherent cells were fixed for 20 min by 5% glutaraldehyde, stained by 0.1% Crystal Violet.

Assay [9] relates to hES cells on LN-521. Briefly: Inhibition of survival assay on LN-521. Particulars: medium contained bFGF, FIG. 16. It is filed as cell-based, human. The text has this:
InSolution™ LY 294002 (a specific Akt inhibitor), InSolution™ Wortmannin (a specific PI3K inhibitor), and InSolution™ 98059 (a specific MEK1/Erk inhibitor) were purchased from Calbiochem. Antibodies to phospho-Akt (#4060), total-Akt (#9272), phospho-Erk (#9101), and total-Erk (#9102) were obtained from Cell Signaling Technology. PathScan Phospho-Akt1 sandwich ELISA kit (#7160), PathScan total Akt1 sandwich ELISA kit (#7170), PathScan Phospho-Akt2 sandwich ELISA kit (#7048), and PathScan total Akt2 sandwich ELISA kit (#7046) were also purchased from Cell Signaling Technology. Antibodies to Calnexin (#ab10286) were obtained from Abcam. Function blocking antibodies to various integrin subunits, mouse isotype antibodies, and α-dystroglycan were purchased from Millipore. Since function blocking antibodies to αV (MAB1980) and α6 (MAB1378) were presented in a solution with sodium azide, before the inhibition of survival experiment all the antibodies to alpha integrin subunits were dialyzed thrice against O3 medium for 2 hours each time. Antibodies to Lutheran receptor and α-fetoprotein, as well as rat isotype control antibodies were obtained from R&D Systems. Antibodies to Oct4, Nanog, SSEA-4, smooth muscle actin and MAP-2 were purchased from Millipore. […]

The mark [10] stands for this setting: O3 medium without any additives.

Chain of Integrin α6β1 (P23229 24-1130): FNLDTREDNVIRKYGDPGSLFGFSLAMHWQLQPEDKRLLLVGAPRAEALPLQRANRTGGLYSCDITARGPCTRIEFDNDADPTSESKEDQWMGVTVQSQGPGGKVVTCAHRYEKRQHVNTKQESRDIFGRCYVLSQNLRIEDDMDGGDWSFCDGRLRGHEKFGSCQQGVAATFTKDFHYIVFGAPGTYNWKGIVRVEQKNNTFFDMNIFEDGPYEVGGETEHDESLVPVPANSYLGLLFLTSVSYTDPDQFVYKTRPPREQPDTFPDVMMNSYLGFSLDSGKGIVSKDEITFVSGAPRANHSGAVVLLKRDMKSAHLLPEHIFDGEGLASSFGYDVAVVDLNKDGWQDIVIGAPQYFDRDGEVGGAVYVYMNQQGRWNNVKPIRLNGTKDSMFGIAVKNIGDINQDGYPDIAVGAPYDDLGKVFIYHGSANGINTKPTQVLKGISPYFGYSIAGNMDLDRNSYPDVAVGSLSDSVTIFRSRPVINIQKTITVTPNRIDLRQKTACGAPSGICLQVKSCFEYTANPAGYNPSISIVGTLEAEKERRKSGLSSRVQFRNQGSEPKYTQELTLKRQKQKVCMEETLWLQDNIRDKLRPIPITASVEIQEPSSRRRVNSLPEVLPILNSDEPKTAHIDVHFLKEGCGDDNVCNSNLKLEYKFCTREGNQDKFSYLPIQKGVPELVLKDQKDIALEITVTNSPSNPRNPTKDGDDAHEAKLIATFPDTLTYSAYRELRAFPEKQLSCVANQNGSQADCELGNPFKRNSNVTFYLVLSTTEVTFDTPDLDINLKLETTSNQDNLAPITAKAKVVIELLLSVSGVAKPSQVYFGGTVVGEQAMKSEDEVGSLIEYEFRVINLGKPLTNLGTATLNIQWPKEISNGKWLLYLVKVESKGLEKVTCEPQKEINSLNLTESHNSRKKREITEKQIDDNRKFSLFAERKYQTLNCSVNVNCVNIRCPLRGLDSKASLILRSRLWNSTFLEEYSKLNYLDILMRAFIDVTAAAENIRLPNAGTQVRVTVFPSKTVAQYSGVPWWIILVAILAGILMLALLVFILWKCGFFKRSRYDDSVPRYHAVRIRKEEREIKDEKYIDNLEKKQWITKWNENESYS
Chain of Integrin α6β1 (P05556 21-798): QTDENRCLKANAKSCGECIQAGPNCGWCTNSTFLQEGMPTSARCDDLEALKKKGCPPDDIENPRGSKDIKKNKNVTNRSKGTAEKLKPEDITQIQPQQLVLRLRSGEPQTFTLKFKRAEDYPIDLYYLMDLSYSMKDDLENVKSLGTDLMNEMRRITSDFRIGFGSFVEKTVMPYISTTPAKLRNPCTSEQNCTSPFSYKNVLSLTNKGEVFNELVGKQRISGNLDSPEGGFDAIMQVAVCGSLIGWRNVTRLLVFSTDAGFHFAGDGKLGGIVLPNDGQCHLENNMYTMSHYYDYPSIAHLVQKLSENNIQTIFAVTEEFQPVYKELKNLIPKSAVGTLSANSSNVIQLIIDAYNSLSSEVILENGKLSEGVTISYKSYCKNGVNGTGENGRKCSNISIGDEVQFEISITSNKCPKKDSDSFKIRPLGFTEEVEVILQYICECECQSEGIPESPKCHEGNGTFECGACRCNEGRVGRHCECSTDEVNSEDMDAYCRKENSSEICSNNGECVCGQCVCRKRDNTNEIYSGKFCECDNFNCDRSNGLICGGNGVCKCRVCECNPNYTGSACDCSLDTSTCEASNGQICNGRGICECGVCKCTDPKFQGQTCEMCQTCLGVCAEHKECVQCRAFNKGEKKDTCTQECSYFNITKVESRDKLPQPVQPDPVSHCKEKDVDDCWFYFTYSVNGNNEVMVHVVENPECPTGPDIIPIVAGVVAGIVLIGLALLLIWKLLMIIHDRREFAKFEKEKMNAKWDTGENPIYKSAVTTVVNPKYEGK

“albumin: albumin of the mTeSR1 medium, concentration increased 2×”: the “effect of 2× increase in albumin concentration on clonal survival” value in assay [1] (laminin-521/E-Cadherin matrix, mTeSR1) is “significantly improved clonal survival”.

As for “LN-511: human recombinant laminin-511, control coating”, in assay [2], the “survival of hES cells 24 hours after plating from single cell suspension” value (“survival … from single cell suspension” below) is on record as “did so as single cells” and the “survival of dissociated hES cells after 24 hours” value is given as “very few”. Also, the “pluripotency of human ES cells in long-term culture” value in assay [3] was “maintain pluripotency and can generate teratomas”. Further, the “survival of human embryonic stem cells after one day in culture” value in assay [4] is listed as “in most cases on laminin-511 survived”. For the same molecule, the “binding affinity of integrin α6β1 compared with LN-111” value in assay [5] is on record as “higher than that for LN-111”. Moreover, the “phosphorylation of MLC compared with cells on Matrigel and LN-111” value in [6] was “even higher”. In addition, the “spreading of the cells after one hour” value in assay [7] is “clearly better”. Moreover, the “cells remaining attached / surviving 24 hours after plating” value in [8] (setting [10]) is given as “at a less extent”. In assay [8] (O3 medium without any additives, without Y-27632, FIG. 6), the “adhesion of human ES cells at 1 hour” value is listed as “roughly the same”.

Take “human recombinant LN-111: human recombinant laminin of α1, β1 and γ1 chains from triple-transfected HEK293 cells”: in assay [2], the “survival … from single cell suspension” value is on record as “failed to survive”.

“LN-111: mouse laminin-111 (Invitrogen), indicated as LN-111 if not otherwise stated”: in assay [2], the “survival … from single cell suspension” value is “did not survive” and the “survival of dissociated hES cells after 24 hours” value is reported as “almost no cells had survived”. For the same molecule, the “cells remaining attached / surviving 24 hours after plating” value in assay [8] (setting [10]) is recorded as “almost no cells remained attached”.

For the molecule “LN-121: human recombinant laminin of α1, β2 and γ1 chains from triple-transfected HEK293 cells”, the “survival … from single cell suspension” value in assay [2] was “failed to survive”.

`COc1cccc(-c2cc(=O)c3ccccc3o2)c1N` [PD 98059]: the “hES cell survival 24 hours after plating on LN-521 with pathway inhibitor” value in [9] is “did not affect the survival that severely”.

For the molecule `C[C@@H](N)[C@H]1CC[C@H](C(=O)Nc2ccncc2)CC1` [Y-27632, reference compound], the “survival of hES cells 24 hours after plating in the presence of ROCK inhibitor” value in [2] (Y-27632, all coatings) is “survived on all surfaces”. Also, the “cells remaining attached after one day with ROCK inhibitor” value in [8] (O3 medium treated with Y-27632, five coatings, FIG. 5) is “remained attached on all 5 coatings”.

B1: E-Cadherin: epithelial-cadherin, most abundant cadherin isoform on the human ES cell surface; coating protein (protein, UniProt P12830 155-882, looked up)
Cadherin-1: DWVIPPISCPENEKGPFPKNLVQIKSNKDKEGKVFYSITGQGADTPPVGVFIIERETGWLKVTEPLDRERIATYTLFSHAVSSNGNAVEDPMEILITVTDQNDNKPEFTQEVFKGSVMEGALPGTSVMEVTATDADDDVNTYNAAIAYTILSQDPELPDKNMFTINRNTGVISVVTTGLDRESFPTYTLVVQAADLQGEGLSTTATAVITVTDTNDNPPIFNPTTYKGQVPENEANVVITTLKVTDADAPNTPAWEAVYTILNDDGGQFVVTTNPVNNDGILKTAKGLDFEAKQQYILHVAVTNVVPFEVSLTTSTATVTVDVLDVNEAPIFVPPEKRVEVSEDFGVGQEITSYTAQEPDTFMEQKITYRIWRDTANWLEINPDTGAISTRAELDREDFEHVKNSTYTALIIATDNGSPVATGTGTLLLILSDVNDNAPIPEPRTIFFCERNPKPQVINIIDADLPPNTSPFTAELTHGASANWTIQYNDPTQESIILKPKMALEVGDYKINLKLMDNQNKDQVTTLEVSVCDCEGAAGVCRKAQPVEAGLQIPAILGILGGILALLILILLLLLFLRRRAVVKEPLLPPEDDTRDNVYYYDEEGGGEEDQDFDLSQLHRGLDARPEVTRNDVAPTLMSVPRYLPRPANPDEIGNFIDENLKAADTDPTAPPYDSLLVFDYEGSGSEAASLSSLNSSESDKDQDYDYLNEWGNRFKKLADMYGGGEDD
B1: in assay [1] (mTeSR1, 250 cells per cm^2, 5 days), the “clonal survival of individualized hES cells” value was “Neither laminin-521 nor E-Cadherin alone permitted efficient clonal survival”.
